Experimental data published in patent US7651846B2, “Treatment and diagnosis of conditions associated with elevated arginase activity” (Children's Hospital & Research Center at Oakland, priority 2003, dated 2010).

Assays:
asthma patients = conditions: nebulised, steroid naive asthma; cited from earlier work
[1] = tested on: Patients with sickle cell disease and documented pulmonary hypertension; assay: Oral L-arginine in sickle cell disease patients with pulmonary hypertension, Doppler echocardiography; type: in vivo, human
Excerpt: Sickle cell patients. Seventeen sickle cell disease patients with documented pulmonary hypertension at steady-state were enrolled in the study. All known patients with pulmonary hypertension receiving care at the Northern California Comprehensive Sickle Cell Center were approached for participation in this analysis. Twelve patients were homozygous for hemoglobin S, three patients had hemoglobin type SC, and two patient had hemoglobin S β-thalassemia. The mean age of patients was 32.7±15 years with a range of 13 to 63 years. There were seven women enrolled. Ten ethnically matched normal non-sickle cell disease volunteers were enrolled as a control group in order to compare amino acid levels and arginase activity. The mean age was 20.6±10 years, ranging from 10 to 34 years. There were four females and six males enrolled. Pulmonary hypertension was defined as estimated pulmonary artery pressures >30 mm Hg by echocardiogram (or tricuspid regurgitant jet velocity of greater than 2.5 m/sec), >two months duration, not associated with acute chest syndrome. A chart review was performed on all patients to obtain tricuspid regurgitant jet velocity data from previous echocardiograms.
(§1) Patients with sickle cell disease and documented pulmonary hypertension by echocardiography were treated with oral L-arginine-HCl, at a dose of 0.1 g/kg TID for five days. […] Blood samples for determination of amino acid levels were drawn in the morning of Day 0 (pre-treatment), […], and Day six of the study. Arginase activity levels were determined on Day 0. No patients were being concurrently treated with vasodilators or anticoagulant agents, and no patients received a red blood cell transfusion during the five-day study period. Cardiologists involved in the interpretation of echocardiograms were unaware of the therapy given.
Echocardiography. […] They were the only patient found to not show an improvement in pulmonary hypertension by echocardiogram.
Results were unavailable from outside hospitals in three patients. […]

[2] = Plasma amino acid levels after oral L-arginine supplementation in SCD patients with pulmonary hypertension; type: in vivo, human; conditions: after five days of oral L-arginine supplementation, n=10, p<0.05
Description: Amino Acid Levels. (A complete amino acid panel, including arginine, citrulline, ornithine, and L-arginine analogue asymmetric di-methyl-L-arginine). Quantitative plasma amino acid levels are measured in μmol/L, using a Beckman 6300 amino acid analyzer. The amino acids are separated on an lithium ion exchange column and then reacted with ninhydrin to generate a color response. The data is collected and analyzed using Beckman 32 Karat software, at the Molecular Structure Facility, University of California, Davis, Calif.
as §1

[3] = tested on: hyperresponsiveness of reactive airways; conditions: animal studies, inhalation of low doses; cited from earlier work
[4] = tested on: patients with a known diagnosis of asthma; conditions: single oral dose 0.1 gm/kg, one patient
Description: The effects of arginine supplementation on pulmonary function tests is evaluated by administering supplemental arginine (oral or intravenous) alone or in conjunction with magnesium and/or an arginase inhibitor to patients with a known diagnosis of asthma, defined as ≧3 wheezing episodes and a past history of asthma medication usage (e.g., bronchodilators, steroids, inhaled steroids, or leukotriene inhibitors etc). Pulmonary function tests are performed before and after a single dose of arginine (0.1 gram/kg to a max of 10 grams).
A single dose of oral arginine (0.1 gm/kg) was administered. Pulmonary function tests were determined prior to treatment and 2 hours after arginine supplementation.

cystic fibrosis patients = conditions: inhaled; cited from earlier work
[5] = tested on: cationic amino acid molecules (Cationic Amino Acid Transporter, CAT); conditions: read-out: Km for arginine transport; cited from earlier work
patients with asthma = conditions: oral; cited from earlier work
[6] = tested on: normal and asthmatic subjects; conditions: inhaled, dose-dependent; cumulative effect higher in asthmatic subjects; cited from earlier work
arginase = conditions: cited from earlier work

| Compound | exhaled NO following administration (asthma patients) | pulmonary artery systolic pressure after therapy ([1]; oral 0.1 g/kg TID for five days, baseline 63.9±13 mmHg, p=0.002) [mmHg] | mean reduction of pulmonary artery systolic pressure ([1]; oral L-arginine-HCl 0.1 g/kg TID, after five days of therapy, p=0.002) [%] | follow-up echocardiography (pulmonary artery systolic pressure) ([1]; ≧one month after arginine therapy, nine compliant patients: four reverted to baseline, four persistent improvement, one worsening) | plasma L-arginine concentration [2] | plasma ornithine concentration [2] | hyperresponsiveness of reactive airways [3] | FIF 50% improvement ([4]; 2 hours after) [%] | effect on lung volumes ([4]; 2 hours after) | effect on spirometry ([4]; 2 hours after) | airway conductance, Gaw increase ([4]; within 2 hours) [%] | airway resistance, Raw decrease ([4]; within 2 hours) [%] | oxygen saturation by venous blood gas after treatment ([4]; increase from 85 %) [%] | pulmonary functions (cystic fibrosis patients) | Km [5] [µM] | airway hyperresponsiveness to histamine as reflected by PC(20) (patients with asthma) | exhaled NO [6] | inhibition of arginase activity (arginase) |
| --- | --- | --- | --- | --- | --- | --- | --- | --- | --- | --- | --- | --- | --- | --- | --- | --- | --- | --- |
| N=C(N)NCCC[C@@H](N)C(=O)O [D-arginine] | increased | – | – | – | – | – | – | – | – | – | – | – | – | – | – | – | – | – |
| N=C(N)NCCC[C@H](N)C(=O)O [L-arginine] | increased | 54.2±12 | 15.2 | mixed results | increased significantly | increased significantly | completely blocked | 23 | minimal effect | did not significantly effect spirometry | 28 | 22 | 92 | improves | ~100 | does not influence | increased | – |
| NC(=NCCC[C@H](N)C(=O)O)NO [NG-hydroxyl-L-arginine] | – | – | – | – | – | – | – | – | – | – | – | – | – | – | – | – | – | potent inhibitor |
